Measured values from patent US6410515B1, “Peptide, a method for its preparation and a pharmaceutical composition containing the peptide” (Immunotech Developments Inc., priority 1995, dated 2002).
Marks after values point to notes of the source that are not given here.

What was measured:
[1] = test system: CFU-S population of bone marrow; experiment: Spleen colony and CFU-S count after peptide injection to marrow donor mice; format: in vivo; details: for Colony count: control 10,7 ± 0,5; for CFU-S count: control 2436
Method: The effect of peptides of the present invention on a population of hemopoietic progenitors was studied by testing for colony formation by hemopoietic stem cells in spleens of irradiated mice.
The peptide was injected intraperitoneally (IP) at different concentrations to intact mice. After two hours, one day, or two days the animals were killed. The bone marrow from the animals was taken to prepare a suspension of marrow cells, which was injected to lethally irradiated (8.5 Gy) mice. Along with the bone marrow, the recipients received injections of thymocytes. After 9 days, spleen colonies were counted. […]
The treatment was performed as described in Example 4(c).

[2] = test system: caryocytes in femoral marrow; experiment: Reconstitution of caryocyte numbers in femoral marrow after 4 Gy; format: in vivo, mice; details: 10 μg/kg IP 2 days before 4 Gy
Method: The reconstitution of caryocyte numbers and that of hemopoietic progenitors was studied in femoral marrow after irradiation in the dose of 4 Gy and the peptide injection. The test was performed in 12 groups of mice, 6 animals each, and lasted 14 days. Intraperitoneal injections of the peptide in a dose of 10 μg/kg were made 1 day and 2 days before the irradiation.

[3] = test system: allogenic bone marrow (C57B1 donor, F1 (CBA×C57B1) recipient); experiment: Taking of allogenic bone marrow transplant and survival; format: in vivo, mice
Method: The preparations were administered daily for the first 5 days after transplantation of bone marrow transplants of donor mice C57B1 to lethally irradiated recipient mice F1 (CBA×C57B1), starting from the 1st hour after the transplantation.

[4] = test system: lethally irradiated recipient mice; experiment: State of hemopoiesis after transplantation of allogenic bone marrow; format: in vivo; details: for Caryocytes in blood: control 1,7 + 0,3; for Lymphocytes, %: control 3
Method: In a series of experiments, bone marrow cells (6 million) of one of the parents were transplanted to lethally irradiated recipient mice which were hybrids of the first generation. […] Generally, weight loss is observed and there is a small percent of deaths during the 42-day study.
A day after the bone marrow transplantation, test recipients began to receive therapy. Three schemes of therapy were used: (1) iDD, 10 μg/kg, ip, for 5 days running, with 2-day intervals, for 6 weeks (K+iDD); (2) before transplantation, bone marrow transplants were treated with iDD in vitro for 1 hour at 37° C., 0.2 jig per 2 x 10^6 cells, without […] treatment with the preparation (iDD); and (3) bone marrow was pretreated in vitro as described in scheme 2, followed by iDD therapy as in scheme 1 (iDD+iDD). Control subjects were mice that were transplanted with the bone marrow without any further therapy. These animals received ip injections of the solvent according to the same schedule.

[5] = test system: hyperthermic bone marrow cells (CFU-S); experiment: Survival of CFU-S of bone marrow after heating at 42° C.; format: cell-based
Method: Hyperthermia is used in the treatment of various cancer types. When treating leukosis, the damaged bone marrow cells are heated at approximately 41-42° C. in order to kill malignant cells as they are more sensitive to heat. However, some non-malignant stem cells may also be affected. Consequently, the ability of the iDD peptide to protect cells during hyperthermia was tested. A suspension of the bone marrow, previously incubated for 1 hour at 37° C. in the presence of iDD (0.2 μg/4×10^6 cells), was heated for 30 minutes at 42° C. It was then diluted until the necessary concentration was reached and transplanted to the lethally radiated recipients The quantity of the exogenous colonies in the spleen was determined on the ninth day. […] The decrease of the colony formation under the action of iDD is not critical, because its colony-inhibiting action is reversible.

[6] = test system: patients with cytopenias of immune origin; experiment: Clinical study: blood indices and lymphocyte subpopulations; format: in vivo; details: for CD4+/CD8+ ratio After iDD treatment: normal 0.7-3.3; for % of cells After iDD treatment: CD4−CD8+ T-Suppressers: normal 18.9-47.9; for % of cells After iDD treatment: CD4+CD8− T-helpers: normal 31.4-63.8
Method: The peptide iDD was given to patients with cytopenias of immune origin and its effect on hemopoietic status was assessed using a number of immunological tests characterising both humoral and cellular immunity.
The iDD was administered 0.1 mg in a 1 ml dose intranasally (once or twice in divided doses) for 5 days. The regime was repeated after a two week interval. For patients receiving steroids and cytostatics, iDD was administered during the therapy or before the cytostatic treatment.
Below are cited the examples of indices dynamics in some patients.

[7] = Peptide IP to donor mice 2 hours before
[8] = Peptide IP to donor mice 1 day before
[9] = Peptide IP to donor mice 2 days before
[10] = iDD + iDD: in vitro pretreatment and iDD therapy
[11] = iDD: transplant treated in vitro only

## H-D-iGlu-D-Trp-OH [iDD]
[1]; [7]
  Colony count: 6,6 ± 0,5
  CFU-S count: 917
[1]; [8]
  Colony count: 4,7 ± 0,6
  CFU-S count: 653
[1]; Peptide IP to donor mice 2 days before + thymocytes
  Colony count: 9,4 ± 0,9
[1]; [9]
  Colony count: 6,0 ± 0,9
  CFU-S count: 1098
[2]; 4 days after irradiation, 4 Gy alone 9,0 ± 0,3
  Caryocyte count: 12,8 ± 0,9 × 10^6
[2]; 7 days after irradiation, 4 Gy alone 10,6 ± 0,8
  Caryocyte count: 21,3 ± 2,1 × 10^6
[2]; 11 days after irradiation, 4 Gy alone 17,0 ± 0,6
  Caryocyte count: 17,3 ± 1,0 × 10^6
[2]; 14 days after irradiation, 4 Gy alone 17,0 ± 1,2
  Caryocyte count: 20,5 ± 0,5 × 10^6
[3]; C57B1 marrow to F1, Cyclosporin A 25μg/kg sc, iDD 10μg/kg ip, untreated 17,3
  CFU-S taking root, %: 43%
[3]; C57B1 marrow to F1, daily 5 days, Cyclosporin A 25μg/kg sc, iDD 10μg/kg ip, per 10^5 cells, untreated 1,7 ± 0,3
  Average colony count: 4,2 ± 0,3
[3]; after 42 days, control 14,3
  MCL (Medium continuation of life): 6,0
[3]; after 42 days, control 50
  Survived mice, %: 93%
[4]; K+ iDD: iDD 10 μg/kg ip, 6 weeks, intact 5,4 + 1,0
  Caryocytes in blood: 3,8 + 0,3 thousand/μl
[4]; K+ iDD: iDD 10 μg/kg ip, 6 weeks, intact 43
  Lymphocytes, %: 19%
[4]; [10]
  Caryocytes in blood: 5,2 + 0,6* thousand/μl
  Lymphocytes, %: 40* %
[4]; [11]
  Caryocytes in blood: 4,2 + 0,3 thousand/μl
  Lymphocytes, %: 21,5%
[4]; schemes K+iDD and iDD
  Increase of lymphocyte count versus control: 6-7 times
[5]; iDD 0.2 μg/4×10^6 cells + heating 30 minutes at 42° C., control + heating 5.9 ± 0.6
  Medium quantity of colonies: 6.9 ± 0.6
[5]; iDD 0.2 μg/4×10^6 cells, no heating, control 11.4 ± 0.4
  Medium quantity of colonies: 6.0 ± 0.6
[5]; iDD + heating, control + heating 51.7
  Survival of CFU-S, %: 115%
[5]; iDD, no heating (reference)
  Survival of CFU-S, %: 100%
[6]; Patient A, before 0.164
  Absolute count after iDD: CD3−CD16,56+ nat. killers: 0.108 bln/l
[6]; Patient A, before 0.388
  Absolute count after iDD: CD3+HLA−DR+ activated T-lymphocytes: 0.251 bln/l
[6]; Patient A, before 0.657
  Absolute count after iDD: CD4−CD8+ T-Suppressers: 0.305 bln/l
[6]; Patient A, before 0.769
  Absolute count after iDD: CD4+CD8− T-helpers: 0.522 bln/l
[6]; Patient A, before 1.6
  Absolute count after iDD: CD45++CD14− lymphocytes: 0.9 bln/l
[6]; Patient A, iDD, no steroids
  Haemoglobin content: 106 g/L
[6]; Patient A, test sample 1.2
  CD4+/CD8+ ratio After iDD treatment: 1.7
[6]; Patient A, test sample 6.1
  % of cells After iDD treatment: CD45+CD14+ monocytes: 3.3%
[6]; Patient A, test sample 10.3
  % of cells After iDD treatment: CD3−CD16,56+ nat. killers: 12.0%
[6]; Patient A, test sample 24.3, normal 2.8-17.3
  % of cells After iDD treatment: CD3+HLA−DR+ activated T-lymphocytes: 27.9%
[6]; Patient A, test sample 33.2
  % of cells After iDD treatment: CD45++CD14− lymphocytes: 34.8%
[6]; Patient A, test sample 41.1
  % of cells After iDD treatment: CD4−CD8+ T-Suppressers: 33.9%
[6]; Patient A, test sample 41.4
  % of cells After iDD treatment: CD45+CD14− granulocytes: 48.5%
[6]; Patient A, test sample 48.1
  % of cells After iDD treatment: CD4+CD8− T-helpers: 58.0%
[6]; Patient K, before 0.057
  Absolute count after iDD: CD3−CD16,56+ nat. killers: 0.054 bln/l
[6]; Patient K, before 0.614
  Absolute count after iDD: CD4+CD8− T-helpers: 0.393 bln/l
[6]; Patient K, before 0.712
  Absolute count after iDD: CD4−CD8+ T-Suppressers: 0.510 bln/l
[6]; Patient K, before 1.68
  Absolute count after iDD: CD45++CD14− lymphocytes: 1.09 bln/l
[6]; Patient K, test sample 0.8
  CD4+/CD8+ ratio After iDD treatment: 0.8
[6]; Patient K, test sample 3.4, normal 4.8-26.7
  % of cells After iDD treatment: CD3−CD16,56+ nat. killers: 5.0%
[6]; Patient K, test sample 5.3
  % of cells After iDD treatment: CD45+CD14+ monocytes: 5.2%
[6]; Patient K, test sample 26.0
  % of cells After iDD treatment: CD45++CD14− lymphocytes: 20.2%
[6]; Patient K, test sample 36.3
  % of cells After iDD treatment: CD4+CD8− T-helpers: 36.1%
[6]; Patient K, test sample 44.5
  % of cells After iDD treatment: CD4−CD8+ T-Suppressers: 46.8%
[6]; Patient K, test sample 55.8
  % of cells After iDD treatment: CD45+CD14− granulocytes: 74.7%
